Source: ChEMBL document CHEMBL1201862, “PubChem BioAssay data set” (2004)
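Step 1: Grow cells in 96-well plates. Step 2: Expose to compound for 48 hours at 5 concentrations. Step 3: Interpolate endpoints linearly; if unreached, use highest concentration. GI50 = concentration required for 50% inhibition of growth.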 Active and inactive are the calls of the source. Cut-off read from the data, not from the text of the source: active = GI50 up to about 1.1 µM and inactive = higher.

Legend:
Experiment in all cases: NCI-60 cell line screen, 48 h
Malme-3M = system: Malme-3M
SK-OV-3 = system: SK-OV-3
MOLT-4 = system: MOLT-4
HT-29 = system: HT-29
TK-10 = system: TK-10
UACC-62 = system: UACC-62
UO-31 = system: UO-31
KM12 = system: KM12
NCI-H23 = system: NCI-H23
OVCAR-3 = system: OVCAR-3
HOP-62 = system: HOP-62
MDA-MB-435 = system: MDA-MB-435
CAKI-1 = system: CAKI-1
SNB-75 = system: SNB-75
MDA-MB-231 = system: MDA-MB-231
OVCAR-5 = system: OVCAR-5
SF-539 = system: SF-539
SK-MEL-28 = system: SK-MEL-28
SK-MEL-5 = system: SK-MEL-5
HCT-15 = system: HCT-15

| Structure (SMILES) | GI50 (Malme-3M) | GI50 (SK-OV-3) | GI50 (MOLT-4) | GI50 (HT-29) | GI50 (TK-10) | GI50 (UACC-62) | GI50 (UO-31) | GI50 (KM12) | GI50 (NCI-H23) | GI50 (OVCAR-3) | GI50 (HOP-62) | GI50 (MDA-MB-435) | GI50 (CAKI-1) | GI50 (SNB-75) | GI50 (MDA-MB-231) | GI50 (OVCAR-5) | GI50 (SF-539) | GI50 (SK-MEL-28) | GI50 (SK-MEL-5) | GI50 (HCT-15) [µM] |
| --- | --- | --- | --- | --- | --- | --- | --- | --- | --- | --- | --- | --- | --- | --- | --- | --- | --- | --- | --- | --- |
| C(=N/NC1=NCCN1)/c1c2ccccc2c(/C=N\NC2=NCCN2)c2ccccc12 | 0.16 µM (active) | 0.177 µM (active) | 0.0376 µM (active) | 0.0923 µM (active) | 1.03 µM (active) | 0.0902 µM (active) | 9.44 µM (inactive) | 0.0885 µM (active) | 0.129 µM (active) | 0.184 µM (active) | 0.0966 µM (active) | 0.0376 µM (active) | 0.526 µM (active) | 0.0735 µM (active) | 6.56 µM (inactive) | 0.239 µM (active) | 0.1 µM (active) | 0.259 µM (active) | 0.26 µM (active) | 19.7 |
| CCC/C(Cl)=N/OC(=O)Nc1cc(C(F)(F)F)ccc1OC | 2.92 µM (inactive) | 6.17 µM (inactive) | 2.1 µM (inactive) | 20.7 µM (inactive) | 18.5 µM (inactive) | 15.2 µM (inactive) | 16.4 µM (inactive) | 18.1 µM (inactive) | 18.7 µM (inactive) | 16.4 µM (inactive) | 18.1 µM (inactive) | 13.4 µM (inactive) | 4.78 µM (inactive) | 15.1 µM (inactive) | 13.1 µM (inactive) | 17.6 µM (inactive) | 15.3 µM (inactive) | 14.5 µM (inactive) | 7.93 µM (inactive) | 5.31 |
| COc1ccc(N2C(=O)C3c4[nH]c5ccccc5c4C4CCCCCCCC4C3C2=O)cc1 (stereo not given) | > 10 µM (inactive) | > 10 µM (inactive) | > 10 µM (inactive) | > 10 µM (inactive) | > 10 µM (inactive) | > 10 µM (inactive) | > 10 µM (inactive) | > 10 µM (inactive) | > 10 µM (inactive) | > 10 µM (inactive) | > 10 µM (inactive) | > 10 µM (inactive) | > 10 µM (inactive) | 5.22 µM (inactive) | > 10 µM (inactive) | > 10 µM (inactive) | 6.95 µM (inactive) | > 10 µM (inactive) | > 10 µM (inactive) | > 10 |
| c1ccc2c(c1)nc1n2CNCC1 | 63.7 µM (inactive) | > 100 µM (inactive) | 43.3 µM (inactive) | 42.2 µM (inactive) | > 100 µM (inactive) | > 100 µM (inactive) | 79.3 µM (inactive) | > 100 µM (inactive) | > 100 µM (inactive) | > 100 µM (inactive) | > 100 µM (inactive) | > 100 µM (inactive) | 49 µM (inactive) | 90.8 µM (inactive) | > 100 µM (inactive) | > 100 µM (inactive) | > 100 µM (inactive) | 48.3 µM (inactive) | > 100 µM (inactive) | 50.2 |
| C[C@]12CC[C@H](O)CC1=CC[C@@H]1[C@@H]2CC[C@]2(C)NC(=O)/C(=C\c3ccccc3)C[C@@H]12 | 15.8 µM (inactive) | 18.9 µM (inactive) | 26.5 µM (inactive) | 14.3 µM (inactive) | 28.2 µM (inactive) | 18.3 µM (inactive) | 12.9 µM (inactive) | 14.5 µM (inactive) | 18.2 µM (inactive) | 11.9 µM (inactive) | 13.5 µM (inactive) | 18.3 µM (inactive) | 25.2 µM (inactive) | 19.6 µM (inactive) | 16 µM (inactive) | 14.5 µM (inactive) | 14.6 µM (inactive) | 16.7 µM (inactive) | 12.9 µM (inactive) | 17.4 |
| COc1ccc2[nH]c3c(C)c4c(c(C)c3c2c1)CN(C)C=C4 | 1.21 µM (inactive) | 7.23 µM (inactive) | 0.65 µM (active) | 3.93 µM (inactive) | 15.1 µM (inactive) | 3.3 µM (inactive) | 24.5 µM (inactive) | 1.35 µM (inactive) | 0.424 µM (active) | 4.53 µM (inactive) | 0.679 µM (active) | 21.2 µM (inactive) | 9.23 µM (inactive) | 0.226 µM (active) | 12.1 µM (inactive) | 7.57 µM (inactive) | 0.366 µM (active) | 3.44 µM (inactive) | 1.98 µM (inactive) | 23.4 |
| O=C1/C(=C\c2cccc(Oc3ccccc3)c2)S(=O)(=O)C(c2ccccc2)N1c1cc(Cl)ccc1Cl (stereo not given) | 20.1 µM (inactive) | 39.4 µM (inactive) | 3.84 µM (inactive) | 5.96 µM (inactive) | 22.3 µM (inactive) | 15.2 µM (inactive) | 16.8 µM (inactive) | 22.9 µM (inactive) | 19.4 µM (inactive) | 20.1 µM (inactive) | 19.4 µM (inactive) | 8.13 µM (inactive) | 24.7 µM (inactive) | 23.9 µM (inactive) | 28.7 µM (inactive) | 20.4 µM (inactive) | 5.43 µM (inactive) | 17.3 µM (inactive) | 17 µM (inactive) | 21 |
| Fc1cc(-c2cc(-c3ccccc3)no2)c(Cl)cc1Cl | 19.2 µM (inactive) | > 32.5 µM (inactive) | 12.4 µM (inactive) | 15.8 µM (inactive) | > 34.7 µM (inactive) | 43.2 µM (inactive) | > 38.5 µM (inactive) | 16.2 µM (inactive) | 14 µM (inactive) | 21.6 µM (inactive) | 22.7 µM (inactive) | 11.4 µM (inactive) | 34.5 µM (inactive) | > 31.6 µM (inactive) | 14.1 µM (inactive) | 1.29 µM (inactive) | > 12.4 µM (inactive) | > 29.8 µM (inactive) | 16.4 µM (inactive) | 36 |
